These compounds were tested on A549 human lung epithelium cell line (assay: RANTES production in response to TNF-α from A549 cells). Settings: Homo sapiens, A549, A549 cells, 100 ng/ml TNF-α, read-out: Cellular activity grade (A549) (Cellular IC50).
Type: cell-based
How it was run: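 RANTES released into supernatant was measured by DELFIA-type sandwich immunoassay, Eu-labelled detection antibody, 340 nm excitation/615 nm emission, recombinant RANTES standard. Beforehand, cells seeded at 4×10^4/well received test compound (1% DMSO) for 1 h at 37 °C, followed by 24 h TNF-α (100 ng/ml) stimulation.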

Compound	IC50 [nM]
O=C(NC1CC1)c1cc2c(C3CCCNC3)cc(-c3c(O)cccc3OCC3CC3)nc2[nH]c1=O (centres unmarked) [Example 31-21]	< 1000
NC(=O)C1Cc2c(C3CCCNC3)cc(-c3c(O)cccc3OCC3CC3)nc2NC1=O (centres unmarked) [Example 26-05]	< 1000
O=C(NC1CCCCC1)c1cc2c(C3CCCNC3)cc(-c3c(O)cccc3OCC3CC3)nc2[nH]c1=O (centres unmarked) [Example 31-18]	< 1000
NC(=O)c1cc2c(C3CCCNC3)cc(-c3c(O)cccc3OCC3CC3)nc2[nH]c1=O (centres unmarked) [Example 25-08]	< 1000
CCCOc1cccc(O)c1-c1cc(C2CCCNC2)c2c(n1)NC(=O)C(C(=O)OCC)C2 (centres unmarked) [Example 26-06]	< 1000
O=C1CCc2c(C3CCNCC3)cc(-c3c(O)cccc3OCC3CC3)nc2N1 [Example 27-04]	< 1000
O=C(NC1Cc2ccccc2C1)c1cc2c(C3CCCNC3)cc(-c3c(O)cccc3OCC3CC3)nc2[nH]c1=O (centres unmarked) [Example 31-12]	< 1000
O=C(NCC1CCCCC1)c1cc2c(C3CCCNC3)cc(-c3c(O)cccc3OCC3CC3)nc2[nH]c1=O (centres unmarked) [Example 31-19]	> 10000
O=C(NCCc1ccccc1)c1cc2c(C3CCCNC3)cc(-c3c(O)cccc3OCC3CC3)nc2[nH]c1=O (centres unmarked) [Example 31-17]	1000 to 10000
CCOC(=O)C1Cc2c(C3CCNCC3)cc(-c3c(O)cccc3OCC3CC3)nc2NC1=O (centres unmarked) [Example 26-04]	< 1000
COCCNC(=O)c1cc2c(C3CCCNC3)cc(-c3c(O)cccc3OCC3CC3)nc2[nH]c1=O (centres unmarked) [Example 31-07]	< 1000
O=C(NC1CCCCCC1)c1cc2c(C3CCCNC3)cc(-c3c(O)cccc3OCC3CC3)nc2[nH]c1=O (centres unmarked) [Example 31-24]	< 1000
CN(C)CCNC(=O)c1cc2c(C3CCCNC3)cc(-c3c(O)cccc3OCC3CC3)nc2[nH]c1=O (centres unmarked) [Example 31-11]	< 1000
O=C(NC(c1ccccc1)c1ccccc1)c1cc2c(C3CCCNC3)cc(-c3c(O)cccc3OCC3CC3)nc2[nH]c1=O (centres unmarked) [Example 31-13]	< 1000
C[C@@H](NC(=O)c1cc2c(C3CCCNC3)cc(-c3c(O)cccc3OCC3CC3)nc2[nH]c1=O)c1ccccc1 (some centres unmarked) [Example 31-15]	< 1000
O=c1[nH]c2nc(-c3c(O)cccc3OCC3CC3)cc(C3CCCNC3)c2cc1[N+](=O)[O-] (centres unmarked) [Example 25-05]	1000 to 10000
O=c1[nH]c2nc(-c3c(O)cccc3OCC3CC3)cc(C3CCCNC3)c2cc1S(=O)(=O)c1ccccc1 (centres unmarked) [Example 25-07]	< 1000
C[C@H](NC(=O)c1cc2c(C3CCCNC3)cc(-c3c(O)cccc3OCC3CC3)nc2[nH]c1=O)C(=O)O (some centres unmarked) [Example 31-16]	1000 to 10000
C[C@H](NC(=O)c1cc2c(C3CCCNC3)cc(-c3c(O)cccc3OCC3CC3)nc2[nH]c1=O)c1ccccc1 (some centres unmarked) [Example 31-14]	< 1000

Compound	IC50 [nM]
CNC(=O)c1cc2c(C3CCCNC3)cc(-c3c(O)cccc3OCC3CC3)nc2[nH]c1=O (centres unmarked) [Example 31-03]	< 1000
O=C1CCc2c(C3CCCNC3)cc(-c3c(O)cccc3OCC3CC3)nc2N1 (centres unmarked) [Example 27-03, 7-[2-(cyclopropylmethoxy)-6-hydroxyphenyl]-5-(3-piperidinyl)-3,4-dihydro-1,8-naphthyridin-2(1H)-one]	< 1000
O=C(NCc1ccccc1)c1cc2c(C3CCCNC3)cc(-c3c(O)cccc3OCC3CC3)nc2[nH]c1=O (centres unmarked) [Example 31-06]	< 1000
CCCC(CCC)NC(=O)c1cc2c(C3CCCNC3)cc(-c3c(O)cccc3OCC3CC3)nc2[nH]c1=O (centres unmarked) [Example 31-26]	< 1000
CCC(CC)NC(=O)c1cc2c(C3CCCNC3)cc(-c3c(O)cccc3OCC3CC3)nc2[nH]c1=O (centres unmarked) [Example 31-25]	< 1000
CCOC(=O)C1Cc2c(C3CCCNC3)cc(-c3c(O)cccc3OCC3CC3)nc2NC1=O (centres unmarked) [Example 26-03]	< 1000
O=C(c1cc2c(C3CCCNC3)cc(-c3c(O)cccc3OCC3CC3)nc2[nH]c1=O)N1CCOCC1 (centres unmarked) [Example 31-08]	1000 to 10000
CCCOc1cccc(O)c1-c1cc(C2CCCNC2)c2c(n1)NC(=O)CC2 (centres unmarked) [Example 27-02]	< 1000
O=C(NC1CCC1)c1cc2c(C3CCCNC3)cc(-c3c(O)cccc3OCC3CC3)nc2[nH]c1=O (centres unmarked) [Example 31-22]	< 1000
O=C(c1cc2c(C3CCCNC3)cc(-c3c(O)cccc3OCC3CC3)nc2[nH]c1=O)N1CCNCC1 (centres unmarked) [Example 31-09]	> 10000
N#Cc1cc2c(C3CCCNC3)cc(-c3c(O)cccc3OCC3CC3)nc2[nH]c1=O (centres unmarked) [Example 25-06]	< 1000
O=C(NC1CCCC1)c1cc2c(C3CCCNC3)cc(-c3c(O)cccc3OCC3CC3)nc2[nH]c1=O (centres unmarked) [Example 31-23]	< 1000
CCCOc1cccc(O)c1-c1cc(C2CCNCC2)c2c(n1)NC(=O)CC2 [Example 27-05]	< 1000
O=C(c1cc2c(C3CCCNC3)cc(-c3c(O)cccc3OCC3CC3)nc2[nH]c1=O)N1CCCC1 (centres unmarked) [Example 31-05]	1000 to 10000
O=C(NCC(F)(F)F)c1cc2c(C3CCCNC3)cc(-c3c(O)cccc3OCC3CC3)nc2[nH]c1=O (centres unmarked) [Example 31-27]	< 1000
CN(C)C(=O)c1cc2c(C3CCCNC3)cc(-c3c(O)cccc3OCC3CC3)nc2[nH]c1=O (centres unmarked) [Example 31-04]	1000 to 10000
O=C(NCCO)c1cc2c(C3CCCNC3)cc(-c3c(O)cccc3OCC3CC3)nc2[nH]c1=O (centres unmarked) [Example 31-20]	1000 to 10000
CC(C)NC(=O)c1cc2c(C3CCCNC3)cc(-c3c(O)cccc3OCC3CC3)nc2[nH]c1=O (centres unmarked) [Example 31-10]	< 1000

More lines, now with the values ahead:

IC50 [nM]	Compound
< 1000	CNCCNc1cc(-c2ccccc2O)nc(N)c1C#N [Example 34-12]
> 10000	N#Cc1c(N2CCCC(C(N)=O)C2)cc(-c2ccccc2O)nc1N (centres unmarked) [Example 34-06]
1000 to 10000	N#Cc1c(N2CCNCC2)cc(-c2ccccc2O)nc1N [Example 34-09]
1000 to 10000	N#Cc1c(N2CCCNCC2)cc(-c2ccccc2O)nc1N [Example 34-08]
1000 to 10000	N#Cc1c(NCCCN)cc(-c2ccccc2O)nc1N [Example 34-11]
> 10000	N#Cc1c(NCCNS(=O)(=O)c2ccccc2)cc(-c2c(O)cccc2OCC2CC2)nc1N [Example 34-17]
< 1000	N#Cc1c(NCCNC(=O)c2ccccc2)cc(-c2c(O)cccc2OCC2CC2)nc1N [Example 34-16]
< 1000	N#Cc1c(NCCN)cc(-c2ccccc2O)nc1N [Example 34-10]
1000 to 10000	N#Cc1c(NC2CCNCC2)cc(-c2ccccc2O)nc1N [Example 34-07]
< 1000	N#Cc1c(NCCNCc2ccccc2)cc(-c2c(O)cccc2OCC2CC2)nc1N [Example 34-15]
< 1000	CC(=O)NCCNc1cc(-c2c(O)cccc2OCC2CC2)nc(N)c1C#N [Example 34-19]
< 1000	N#Cc1c(NCCNCc2ccccc2)cc(-c2ccccc2O)nc1N [Example 34-13]
< 1000	N#Cc1c(NCCNC(=O)Nc2ccccc2)cc(-c2c(O)cccc2OCC2CC2)nc1N [Example 34-18]
